Legend:
Assay type in all cases: cell-based
[1] = tested on: MSTO-211H cells; assay: Proliferation assay (EdU incorporation), MSTO-211H; settings: Homo sapiens, 72 h, YAP-driven MSTO-211H (LATS1 mutation), 3 days with inhibitor, 1% serum
Procedure: (§1) The anti-proliferative activity of TEAD inhibitors was evaluated in cells with different properties for YAP; “YAP-driven” cells (MSTO-211H, NCI-H226) in which YAP located in the nucleus and “YAP-independent” cells (OCM1, NCI-H28) where YAP located in the cytoplasm. […] TEAD inhibitors were evaluated with cell lines with these YAP profiling and mutational status.
(§2) The next day, replace it with cell starvation medium containing 1% serum. After one day of growth in the starvation medium, the cells were incubated for 3 days with TEAD inhibitors in a concentration range of 0.01-10 μM. After 3 days, EdU (Invitrogen) at a concentration of 10 µM was added to the starvation medium and incubated for an additional 24 hours. After removing the starvation medium remaining in each well, wash the wells with PBS. Cells were fixed with 4% paraformaldehyde (Electron microscopy sciences) at room temperature for 20 minutes. After removing the fix solution remaining in each well, wash the wells with PBS and the cells were permeabilized for 40 minutes by adding 0.5% triton X-100 (Sigma Aldrich). After removing the permeabilization solution remaining in each well, the EdU labeling was performed according to the instructions of the manufacturer's instructions (Click-iT™ Cell Reaction Buffer Kit, Invitrogen). After the Click reaction for EdU labeling, nuclei were stained with […] (Thermo Scientific) for total cell count analysis. After plate preparation for detection, Image acquisition was performed using the ImageXpress Micro XLS. The acquired images were analyzed using MetaXpress software (molecular devices). Through this experimental method, it was possible to confirm the inhibitory activity of TEAD inhibitors by detection EdU incorporated into proliferating cells.
(§3) IC50 for cell proliferation inhibition activity are shown in the Table 2 below and designated within the following ranges. [+++: ≤0.1 μM, ++: >0.1 μM to ≤1 μM, +: >1 μM to ≤10μ, −: >10 μM]

[2] = tested on: TEAD reporter-containing human breast cancer cell line MCF7; assay: TEAD reporter (luciferase) assay; settings: TEAD reporter MCF7 cells, 24 hours treatment, 1% serum media
In short: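 Cells plated at 30,000/well overnight, then treated 24 h in 1% serum medium with 0.1% DMSO. CCK-8 viability read at 450 nm, then Dual-Glo luciferase luminescence; IC50 from non-linear regression of dose-response curves.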

[3] = tested on: NCI-H226 cells; assay: Proliferation assay (EdU incorporation), NCI-H226; settings: Homo sapiens, 72 h, YAP-driven NCI-H226 (NF2 mutation), 3 days with inhibitor, 1% serum
Procedure: as §1, §2, §3

Row | SMILES | IC50 [1] [nM] | IC50 [2] [nM] | IC50 [3] [nM]
1 | C=CC(=O)Nc1cnc2c(c1)c(CCc1ccc(F)cc1)cn2C [Example 63, N-(3-(4-Fluorophenethyl)-1-methyl-1H-pyrrolo[2,3-b]pyridin-5-yl)acrylamide] | ≤ 100 | ≤ 100 | ≤ 100
2 | C=CC(=O)Nc1cnc2c(c1)c(-c1ccc(F)c(Cl)c1)cn2C [Example 97, N-(3-(3-Chloro-4-fluorophenyl)-1-methyl-1H-pyrrolo[2,3-b]pyridin-5-yl)acrylamide] | ≤ 100 | 100 to 1000 | ≤ 100
3 | C=CC(=O)Nc1ccc2c(c1)c(/C=C/C1CCC(F)(F)CC1)nn2CC [Compound 3, (E)-N-(3-(2-(4,4-Difluorocyclohexyl)vinyl)-1-ethyl-1H-indazol-5-yl)acrylamide] | ≤ 100 | ≤ 100 | 100 to 1000
4 | C=CC(=O)Nc1cnc2c(c1)c(-c1ccc(C(C)C)cc1)cn2C [Example 93, N-(3-(4-Isopropylphenyl)-1-methyl-1H-pyrrolo[2,3-b]pyridin-5-yl)acrylamide] | ≤ 100 | 100 to 1000 | ≤ 100
5 | C=CC(=O)Nc1cnc2c(c1)c(/C=C/c1ccc(Cl)cc1)nn2C [Compound 31, (E)-N-(3-(4-Chlorostyryl)-1-methyl-1H-pyrazolo[3,4-b]pyridin-5-yl)acrylamide] | ≤ 100 | 100 to 1000 | ≤ 100
6 | C=CC(=O)Nc1cnc2c(c1)c(/C=C/c1ccc(Cl)cc1)cn2C [Compound 16, (E)-N-(3-(4-Chlorostyryl)-1-methyl-1H-pyrrolo[2,3-b]pyridin-5-yl)acrylamide] | ≤ 100 | 100 to 1000 | ≤ 100
7 | C=CC(=O)Nc1ccc2c(c1)c(/C=C/c1ccc(Cl)cc1)nn2CC [Compound 4, (E)-N-(3-(4-Chlorostyryl)-1-ethyl-1H-indazol-5-yl)acrylamide] | ≤ 100 | > 10000 | ≤ 100
8 | C=CC(=O)Nc1ccc2c(c1)c(/C=C/c1ccc(Cl)cc1)nn2C [Compound 2, (E)-N-(3-(4-Chlorostyryl)-1-methyl-1H-indazol-5-yl)acrylamide] | ≤ 100 | 100 to 1000 | ≤ 100
9 | C=CC(=O)Nc1cnc2c(c1)c(/C=C/c1ccc(Cl)cc1)cn2CC [Compound 18, (E)-N-(3-(4-Chlorostyryl)-1-ethyl-1H-pyrrolo[2,3-b]pyridin-5-yl)acrylamide] | ≤ 100 | 1000 to 10000 | ≤ 100
10 | C=CC(=O)Nc1ccc2c(c1)c(/C=C/c1ccc(Cl)cc1)cn2C(C)C [Compound 28, (E)-N-(3-(4-Chlorostyryl)-1-isopropyl-1H-indol-5-yl)acrylamide] | 100 to 1000 | 100 to 1000 | ≤ 100
11 | C=CC(=O)Nc1ccc2c(c1)c(/C=C/C1CCC(F)(F)CC1)nn2C [Compound 1, (E)-N-(3-(2-(4,4-Difluorocyclohexyl)vinyl)-1-methyl-1H-indazol-5-yl)acrylamide] | 100 to 1000 | ≤ 100 | ≤ 100
12 | C=CC(=O)Nc1cnc2c(c1)c(-c1ccc(CC)cc1)cn2C [Example 89, N-(3-(4-Ethylphenyl)-1-methyl-1H-pyrrolo[2,3-b]pyridin-5-yl)acrylamide] | ≤ 100 | 100 to 1000 | ≤ 100
13 | C=CC(=O)Nc1cnc2c(c1)c(-c1ccc(F)c(C(F)(F)F)c1)cn2C [Example 92, N-(3-(4-Fluoro-3-(trifluoromethyl)phenyl)-1-methyl-1H-pyrrolo[2,3-b]pyridin-5-yl)acrylamide] | ≤ 100 | ≤ 100 | ≤ 100
14 | C=CC(=O)Nc1ccc2c(c1)c(/C=C/C1CCC(F)(F)CC1)cn2C [Compound 21, (E)-N-(3-(2-(4,4-Difluorocyclohexyl)vinyl)-1-methyl-1H-indol-5-yl)acrylamide] | 100 to 1000 | ≤ 100 | 100 to 1000
15 | C=CC(=O)Nc1cnc2c(c1)c(/C=C/C1CCC(F)(F)CC1)nn2C [Compound 30, (E)-N-(3-(2-(4,4-Difluorocyclohexyl)vinyl)-1-methyl-1H-pyrazolo[3,4-b]pyridin-5-yl)acrylamide] | 100 to 1000 | ≤ 100 | ≤ 100
16 | C=CC(=O)Nc1ccc2c(c1)c(/C=C/c1ccc(F)cc1)cn2C [Compound 24, (E)-N-(3-(4-Fluorostyryl)-1-methyl-1H-indol-5-yl)acrylamide] | 100 to 1000 | 100 to 1000 | ≤ 100

Reference: patent US20250282735A1, “BICYCLE COMPOUNDS AS TEAD INHIBITOR” (DONG-A ST CO., LTD., priority 2022, published 2025)
